From ChEMBL document CHEMBL1150831, “Immunosuppressive sesquiterpene alkaloids from Tripterygium wilfordii” (2001)
The source made the active and inactive calls. The rule behind the calls is not given here.

How the values were obtained:
Assay type in all cases: functional
PBMC [1] = assay: Immunosuppressive activity in human PBMC assessed as inhibition of LPS-stimulated IL1-beta production at 10 ug/mL after 18 to 24 hrs by ELISA
PBMC [2] = assay: Immunosuppressive activity in human PBMC assessed as inhibition of LPS-stimulated IL4 production at 10 ug/mL after 18 to 24 hrs by ELISA
PBMC [3] = assay: Immunosuppressive activity in human PBMC assessed as inhibition of LPS-stimulated IL2 production at 10 ug/mL after 18 to 24 hrs by ELISA
PBMC [4] = assay: Immunosuppressive activity in human PBMC assessed as inhibition of LPS-stimulated IFN-gamma production at 10 ug/mL after 18 to 24 hrs by ELISA
PBMC [5] = assay: Immunosuppressive activity in human PBMC assessed as inhibition of LPS-stimulated IL8 production at 10 ug/mL after 18 to 24 hrs by ELISA
PBMC [6] = assay: Immunosuppressive activity in human PBMC assessed as inhibition of LPS-stimulated TNFalpha production at 10 ug/mL after 18 to 24 hrs by ELISA

Compound	inhibition at 10 µg/mL (PBMC [1])	inhibition at 10 µg/mL (PBMC [2])	inhibition at 10 µg/mL (PBMC [3])	inhibition at 10 µg/mL (PBMC [4])	inhibition at 10 µg/mL (PBMC [5])	inhibition at 10 µg/mL (PBMC [6])	inhibition (PBMC [1])	inhibition (PBMC [2])	inhibition (PBMC [3])	inhibition (PBMC [4])	inhibition (PBMC [5])	inhibition (PBMC [6])
CC(=O)OC[C@]12[C@H](OC(C)=O)[C@H](OC(C)=O)[C@@H]3[C@@H](OC(C)=O)[C@@]14O[C@@]3(C)COC(=O)c1cccnc1CC[C@@](C)(O)C(=O)O[C@@H]([C@H](OC(=O)c1ccccc1)[C@@H]2OC(C)=O)[C@]4(C)O	-6%	50%	35%	4%	8%	2%						
CC(=O)OC[C@]12[C@H](OC(C)=O)[C@H](OC(C)=O)[C@@H]3[C@@H](O)[C@@]14O[C@@]3(C)COC(=O)c1cccnc1CC[C@@](C)(OC(=O)c1ccccc1)C(=O)O[C@@H]([C@H](OC(C)=O)[C@@H]2OC(C)=O)[C@]4(C)O [WILFORNINE B]	-3%	100%	22%	7%	-23%	-6%						
CC(=O)OC[C@]12[C@H](OC(C)=O)[C@H](OC(C)=O)[C@@H]3[C@@H](OC(=O)c4ccccc4)[C@@]14O[C@@]3(C)COC(=O)c1cccnc1CC[C@@](C)(OC(=O)c1ccccc1)C(=O)O[C@@H]([C@H](OC(C)=O)[C@@H]2OC(C)=O)[C@]4(C)O [WILFORNINE C]	-6%	39%	51%	32%	-8%	-11%						
CC(=O)OC[C@]12[C@H](OC(C)=O)[C@H](OC(=O)c3cccnc3)[C@@H]3[C@@H](OC(C)=O)[C@@]14O[C@@]3(C)COC(=O)c1cccnc1C(C)C(C)C(=O)O[C@@H]([C@H](OC(C)=O)[C@@H]2OC(C)=O)[C@]4(C)O (stereo partly specified)							inactive	inactive	inactive	inactive	inactive	inactive
CC(=O)OC[C@]12[C@H](OC(C)=O)[C@H](OC(C)=O)[C@@H]3[C@@H](OC(C)=O)[C@@]14O[C@@]3(C)COC(=O)c1cccnc1CC[C@H](C)C(=O)O[C@@H]([C@H](OC(=O)c1ccco1)[C@@H]2OC(C)=O)[C@]4(C)O	53%	-53%	22%	4%	7%	64%						
CC(=O)OC[C@]12[C@H](OC(C)=O)[C@H](OC(C)=O)[C@@H]3[C@@H](OC(C)=O)[C@@]14O[C@@]3(C)COC(=O)c1cccnc1CC[C@H](C)C(=O)O[C@@H]([C@H](OC(C)=O)[C@@H]2OC(C)=O)[C@]4(C)O [WILFORMINE]	14%	77%	50%	71%	60%	20%						
CC(=O)OC[C@]12[C@H](OC(C)=O)[C@H](OC(C)=O)[C@@H]3[C@@H](OC(C)=O)[C@@]14O[C@@]3(C)COC(=O)c1cccnc1C(C)C(C)C(=O)O[C@@H]([C@H](OC(C)=O)[C@@H]2OC(=O)c1ccccc1)[C@]4(C)O (stereo partly specified) [MAYTEINE]	2%	14%	55%	36%	2%	-9%						
COC(=O)C[C@@H]1C(=O)CCC(C)C(=O)O[C@@H]2[C@@H]3[C@@H](OC(C)=O)[C@@]45O[C@@]3(C)COC(=O)c3cccnc3C(C)C(C)C(=O)O[C@@H]([C@H](OC(C)=O)[C@H](OC(C)=O)[C@@]4(COC1=O)[C@@H]2OC(C)=O)[C@]5(C)O (stereo partly specified) [TRIPTONINE A]	55%	-20%	33%	17%	43%	62%						
CC(=O)OC[C@]12[C@H](OC(C)=O)[C@H](OC(C)=O)[C@@H]3[C@@H](OC(C)=O)[C@@]14O[C@@]3(C)COC(=O)c1cnccc1C(C)C(C)C(=O)O[C@@H]([C@H](OC(C)=O)[C@@H]2O)[C@]4(C)O (stereo partly specified)							inactive	inactive	inactive	inactive	inactive	inactive
CC(=O)OC[C@]12[C@H](OC(C)=O)[C@H](OC(C)=O)[C@@H]3[C@@H](OC(=O)c4ccccc4)[C@@]14O[C@@]3(C)COC(=O)c1cccnc1C(C)C(C)C(=O)O[C@@H]([C@H](OC(C)=O)[C@@H]2OC(=O)c1ccccc1)[C@]4(C)O (stereo partly specified)	49%	100%	100%	92%	97%	76%						
CC(=O)OC[C@]12[C@H](OC(C)=O)[C@H](OC(C)=O)[C@@H]3[C@@H](OC(=O)c4ccccc4)[C@@]14O[C@@]3(C)COC(=O)c1cccnc1C(C)C(C)C(=O)O[C@@H]([C@H](OC(=O)c1cccnc1)[C@@H]2OC(C)=O)[C@]4(C)O (stereo partly specified) [HYPONINE D]	7%	66%	45%	13%	-15%	-9%						
CC(=O)OC[C@]12[C@H](OC(C)=O)[C@H](OC(C)=O)[C@@H]3[C@@H](OC(C)=O)[C@@]14O[C@@]3(C)COC(=O)c1cccnc1C(C)C(C)C(=O)O[C@@H]([C@H](OC(C)=O)[C@@H]2OC(C)=O)[C@]4(C)O (stereo partly specified) [EUONYMINE]	47%	11%	53%	28%	31%	55%						
CC(=O)OC[C@]12[C@H](OC(C)=O)[C@H](OC(C)=O)[C@@H]3[C@@H](OC(=O)c4ccccc4)[C@@]14O[C@@]3(C)COC(=O)c1cnccc1C(C)C(C)(O)C(=O)O[C@@H]([C@H](OC(=O)c1ccccc1)[C@@H]2OC(C)=O)[C@]4(C)O (stereo partly specified)							inactive	inactive	inactive	inactive	inactive	inactive
CC(=O)OC[C@]12[C@H](OC(C)=O)[C@H](OC(C)=O)[C@@H]3[C@@H](OC(=O)c4ccccc4)[C@@]14O[C@@]3(C)COC(=O)c1cccnc1C(C)C(C)C(=O)O[C@@H]([C@H](OC(C)=O)[C@@H]2OC(C)=O)[C@]4(C)O (stereo partly specified)	43%	100%	100%	99%	84%	37%						
CC(=O)OC[C@]12[C@H](OC(C)=O)[C@H](OC(C)=O)[C@@H]3[C@@H](OC(C)=O)[C@@]14O[C@@]3(C)COC(=O)c1cnccc1C(C)C(C)(O)C(=O)O[C@@H]([C@H](OC(=O)c1ccccc1)[C@@H]2OC(C)=O)[C@]4(C)O (stereo partly specified) [HYPOGLAUNINE C]	2%	51%	57%	20%	-26%	-28%						
CC(=O)OC[C@]12[C@H](OC(C)=O)C(=O)[C@@H]3[C@@H](OC(C)=O)[C@@]14O[C@@]3(C)COC(=O)c1cnccc1CCC(C)(O)C(=O)O[C@@H]([C@H](OC(C)=O)[C@@H]2OC(C)=O)[C@]4(C)O (stereo partly specified)	18%	77%	47%	62%	64%	10%						
CC(=O)OC[C@]12[C@H](OC(C)=O)[C@H](OC(C)=O)[C@@H]3[C@@H](OC(C)=O)[C@@]14O[C@@]3(C)COC(=O)c1cccnc1CC[C@@](C)(OC(=O)c1ccccc1)C(=O)O[C@@H]([C@H](OC(C)=O)[C@@H]2OC(C)=O)[C@]4(C)O [WILFORNINE A]	-4%	50%	23%	8%	2%	0%						
CC(=O)OC[C@]12[C@H](OC(C)=O)[C@H](OC(C)=O)[C@@H]3[C@@H](OC(=O)c4ccccc4)[C@@]14O[C@@]3(C)COC(=O)c1cccnc1C(C)C(C)C(=O)O[C@@H]([C@H](O)[C@@H]2OC(C)=O)[C@]4(C)O (stereo partly specified)							inactive	inactive	inactive	inactive	inactive	inactive
CC(=O)OC[C@]12[C@H](OC(C)=O)C(=O)[C@@H]3[C@@H](OC(C)=O)[C@@]14O[C@@]3(C)COC(=O)c1cccnc1CC[C@@](C)(O)C(=O)O[C@@H]([C@H](OC(C)=O)[C@@H]2OC(C)=O)[C@]4(C)O							inactive	inactive	inactive	inactive	inactive	inactive
CC(=O)OC[C@]12[C@H](OC(C)=O)[C@H](OC(C)=O)[C@@H]3[C@@H](OC(C)=O)[C@@]14O[C@@]3(C)COC(=O)c1cccnc1CC[C@@](C)(OC(=O)c1ccco1)C(=O)O[C@@H]([C@H](OC(C)=O)[C@@H]2OC(C)=O)[C@]4(C)O							inactive	inactive	inactive	inactive	inactive	inactive
CC(=O)OC[C@]12[C@H](OC(C)=O)[C@H](OC(C)=O)[C@@H]3[C@@H](OC(C)=O)[C@@]14O[C@@]3(C)COC(=O)c1cccnc1CC[C@H](C)C(=O)O[C@@H]([C@H](OC(=O)c1ccccc1)[C@@H]2OC(C)=O)[C@]4(C)O	64%	16%	67%	41%	1%	79%						
